From paper PMC6005341, “Identification of “sarsasapogenin-aglyconed” timosaponins as novel Aβ-lowering modulators of amyloid precursor protein processing” (Chemical Science, 2016)

Experiments:
[1] = tested on: Mouse primary cortical neurons; design: method as in earlier work; settings: ref J. Biol. Chem. (2005) 280: 5829, J. Biol. Chem. (2010) 285:28472, read-out: In vitro IC50 Aβ inhibition; cited from earlier work
[2] = tested on: brain Aβ / amyloid in APPswe transgene; settings: cited from earlier work
HEK293 expressing APPswe = tested on: HEK293 expressing APPswe; design: method as in J Neurosci Res (2012) 92: 108; settings: ref J Neurosci Res (2012) 92: 108, read-out: In vitro IC50 Aβ inhibition; cited from earlier work
HEK293 expressing APP = tested on: HEK293 expressing APP; design: method as in J. Biol. Chem. (2010) 285:9110; settings: ref J. Biol. Chem. (2010) 285:9110, read-out: In vitro IC50 Aβ inhibition; cited from earlier work
[3] = tested on: Brain Aβ42 in APP/PS1 transgene; design: method as in J. Biol. Chem. (2010) 285:9110; settings: diet with 0.35% for 15 weeks, ref J. Biol. Chem. (2010) 285:9110; cited from earlier work
β-secretase = tested on: β-secretase; design: method as in PMID 23082924; settings: rat retina; cited from earlier work
[4] = tested on: SH-SY5Y Cells expressing APP; design: method as in J Neurosci. (2005) 25: 3032; J. Biol. Chem (2011) 286:14028; settings: ref J Neurosci. (2005) 25: 3032, J. Biol. Chem (2011) 286:14028, read-out: In vitro IC50 Aβ inhibition; cited from earlier work
[5] = tested on: Aβ42 production in N2A-APPswe cells; test: Aβ42 in conditioned medium of N2A-APPswe cells by ELISA, 18 h treatment; assay type: cell-based; settings: N2a-APPswe, read-out: IC50 in lowering Aβ42 production, N2A-APPswe cells; mean ± standard deviation; n ≥ 3
Source text: Sigma-Aldrich Chemical Co. unless otherwise specified. SSG (1) was purchased from Wako Pure Chemical Industries, Ltd. Diosgenin (6), Dioscin (9), Polyphyllin D (10), Timosaponin BI (22) and Timosaponin BII (23) were purchased from Chengdu Must Bio-Technology Co.
Ltd. Yamogenin (7) was bought from Ambinter c/o Greenpharma while Smilagenin (24) was bought from Steraloids Inc. Substances dissolved in DMSO as stock solutions. Cell culture medium constituents were purchased from Life Technologies, Inc.
Cell culture: Neuro-2A cells expressing Swedish mutants of APP (N2A-APPswe provided by Prof. Yifan Han, The Hong Kong Polytechnic University)1 was cultured in minimal essential medium with 2 mM glutamine, 2 mM pyruvate and 10% fetal bovine serum. […]
Aβ ELISA: Aβ concentrations in conditioned medium were assayed using ELISA kits for […]

[6] = Plasma and brain concentrations by LC-MS/MS; assay type: in vivo, mice
Experimental: (§1) Animal experiments: Male C57BL/6N mice were housed in environmentally controlled room (temperature: 25 ± 2 °C, humidity: 50 ± 5%, 12-h light-dark cycle) in Laboratory Animal Unit, The University of Hong Kong and were freely access to food and water. TAIII, TAI SSG and compound 34 were dissolved in 5% Tween 80 and given to the mice by oral gavage at three repeated doses of 100 mg/kg in 48 hours. Mice were administrated with 5% Tween 80 (control group), TAIII, TAI SSG and 34. The experimental procedures were performed with the approval of Committee of Use of Live Animal for Teaching and Research of The University of Hong Kong. Blood (about 600-800 µL) was collected by cardiac puncture and added with 1/10 volume of Na2EDTA (20 mg/mL) to prevent coagulation. After centrifugation at 3000 g for 15 min at 4 °C, plasma was transferred to a centrifuge tube. The brain was dissected into two hemispheres on ice, weighed and frozen in liquid nitrogen immediately. The left brain was homogenized with 1 mL of buffer containing 5 M guanidine HCl, 50 mM Tris HCl, pH 8.0, with protease inhibitor cocktail and AEBSF using a Polytron and the homogenates were allowed to stand at room temperature for 3h. Both plasma and brain samples were stored at -80 °C until they were analyzed. […]
B. Determination of timosaponin levels in mice plasma and brain by ultra-high pressure liquid chromatography tandem mass spectrometry
The UPLC-ESI-QTOF consists of a Waters Q-TOF PremierTM mass spectrometer (Micromass MS Technologies, Manchester, UK) operated in positive ion mode and a Waters ACQUITY TM UPLC system. The mass spectrometer conditions were optimized as follows: source […]
temperature, 120 °C; desolvation temperature, 500 °C; nebulization gas flow rate, 1000 L/h; cone gas flow rate, 20 L/h; capillary voltage, 2.5 kV; sampling cone voltage, 28V. The data were collected into two separate data channels with the instrument spending 0.5 s on data acquisition for each channel and a 0.1 s inter-channel delay. The mass spectrometer was calibrated by using the solution of sodium formate (0.5 mM) and the TOF scan range was from 100 to 1000 Da. In order to improve mass measurement accuracy a lock mass compound (50 pg µL−1 solution of leucine encephalin; m/z 556.2771) was continuously infused at a 0.5 mL min-1 using the built-in syringe pump of the instrument.
Sample was loaded into a Waters ACQUITY TM BEH C18 column (100 × 2.1 mm i.d., 1.7 µM) connected to a Waters ACQUITY TM BEH C18 guard column (5 × 2.1 mm i.d., 1.7 µM). The gradient elution system consisted of 0.1% formic acid in water (A) and 0.1% formic acid in acetonitrile (B). Separation was achieved by using: 30%-55% B from 0 to 3 min; 55-100% B from 3 to 6 min; 100% B from 6 to 12 min and returned to initial conditions and equilibrated for 3 minutes. The flow rate was 0.3 mL/min and the injection volume was 5 µL.
Standard preparation and sample preparation
Stock solution (10 µM ) of each analyte was prepared by dissolving in methanol. They were subject to serial dilution to give calibration curves of SSG 1 (plasma: y = 8.7485× - 0.0676; […]
each concentration of each analyte was transferred to a centrifuge tube and evaporated to dryness by a concentrator. Dioscin (20 µL , 10 µM) was added as an internal standard followed by methanol (130 µL) and control plasma (50 µL). The mixture was vortexed for 5 s and centrifuged (15000 × g) for 15 min. The supernatant was collected and evaporated to dryness by a concentrator. Methanol (100 µL) was added and then vortexed again for 10 s and centrifuged (15000 × g) for 20 min. The supernatant (5 µL) was subject to LC-MS/MS analysis. Analyte-treated plasma, control brain and analyte-treated brain were prepared in a […]
The acquisition and processing of data were performed by Masslynx (version 4.1) software.
Mass window of ±10 mDa and mass resolution of 9000 were set for both molecular ions and product ions. MS full scan was applied to acquire high abundant molecular ions [M+H]+ with […]

Aβ42 levels in the brain = test: In vivo brain Aβ42 level by ELISA after oral dosing; settings: 100 mg kg^–1 oral gavage, three times in 2 days, 3–5 month old C57BL/6 mice
Experimental: was performed at least three times. The lowest binding scores were computed and the conformations of the corresponding binding pose presented.
Quantum mechanics/Molecular mechanics. The binding between transmembrane and substrate was further optimized using the QM/MM approach and NWChem software. The quantum part (QM) included TAIII (total 116 atoms), while the rest of the system was modelled as the molecular mechanics (MM) level. The QM region was treated at the DFT level using the B3LYP method. The 6-31G* Pople basis set was employed for all the atoms.
The transmembrane was described with the AMBER parm99 force field. The binding structure was solvated in a cubic box with 6872 classical SPC/E water molecules. Three negative counter ions (Cl-) were added to neutralize the charges in the system. The structure was optimized by performing the BFGS algorithm for the QM part and the steepest descent algorithm for the MM part. The optimization of these two regions (QM and MM) was alternated until self-consistency was reached.
as §1, with “The brain was dissected into two hemispheres on ice, weighed and frozen in liquid nitrogen immediately. The left brain was homogenized with 1 mL of buffer containing 5 M guanidine HCl, 50 mM Tris HCl, pH 8.0, with protease inhibitor cocktail and AEBSF using a Polytron and the homogenates were allowed to stand at room temperature for 3h.” left out, “analyzed. The Aβ42 levels were determined by Wako High Sensitive Aβx-42 ELISA kit.” for “analyzed.”

N2A expressing APPswe = tested on: N2A expressing APPswe; design: method as in J. Neurosci., (2005) 25:8807; settings: ref J. Neurosci., (2005) 25:8807, read-out: In vitro IC50 Aβ inhibition; cited from earlier work
[7] = any metabolite, mice n = 6, three oral doses 100 mg/kg in two days

In the case of `COc1cc(/C=C/C(=O)CC(=O)/C=C/c2ccc(O)c(OC)c2)ccc1O` [Curcumin], the IC50 [1] is listed as > 20 µM and the Amyloid deposition ([2]; chow with 500 ppm for 22 weeks, ref J. Biol. Chem. (2005) 280: 5829, J. Biol. Chem. (2010) 285:28472) is listed as “reduced”.
In the case of `C/C=C1\[C@H]2C=C(C)C[C@]1(N)c1ccc(=O)[nH]c1C2` [Huperzine A], the IC50 (HEK293 expressing APPswe) is listed as ~10 µM.
In the case of `Oc1ccc(/C=C/c2cc(O)cc(O)c2)cc1` [Resveratrol], the IC50 (HEK293 expressing APP) is given as ~20 µM and the “Brain Aβ42 reduced by” value [3] is given as 20%.
In the case of `C[C@@H](CC[C@@]1(O)O[C@H]2C[C@H]3[C@@H]4CC[C@@H]5C[C@@H](O[C@@H]6O[C@H](CO)[C@H](O)[C@H](O)[C@H]6O[C@@H]6O[C@H](CO)[C@@H](O)[C@H](O)[C@H]6O)CC[C@]5(C)[C@H]4CC[C@]3(C)[C@H]2[C@@H]1C)CO[C@@H]1O[C@H](CO)[C@@H](O)[C@H](O)[C@H]1O` [Timosaponin B II (23), timosaponin B II], the “up-regulation of β-secretase induced by ferric chloride” value (β-secretase) is given as “inhibit”.
For `CC/C=C\C/C=C\C/C=C\C/C=C\C/C=C\C/C=C\CCC(=O)O` [docosahexaenoic acid], the IC50 [4] is listed as ~100 µM and the “Total Aβ reduced by” value ([2]; diet with 0.5% level for 5 months, ref J Neurosci. (2005) 25: 3032, J. Biol. Chem (2011) 286:14028) is listed as 70%.
With `CC1CCC2(OC1)OC1CC3C4CCC5CC(OCC(=O)NCC6OC(O)C(O)C(O)C6O)CCC5(C)C4CCC3(C)C1C2C` (stereo not drawn) [α-, β-OH SSG (34), α-, β-OH SSG] the IC50 [5] was 7.3 ± 4 µM, the “Brain Metabolite” value [6, 7] was “Not detected” and the “Plasma Metabolite” value [6, 7] was “Not detected”. For the same compound, the “Brain Precursor” value ([6]; mice n = 6, three oral doses 100 mg/kg in two days) was 0.025 ± 0.041 µM, the “Plasma Precursor” value ([6]; mice n = 6, three repeated oral doses 100 mg/kg in two days) was 0.051 ± 0.072 µM and the “reduction of Aβ42 levels in the brain” value (Aβ42 levels in the brain) was 87% ± 15%.
For “Epigallocatechin-3-gallate [Epigallocatechin-3-gallate (EGCG)]”, the IC50 (N2A expressing APPswe) is listed as ~20 µM.
